Assay [1] addresses T1, Lysyl-tRNA synthetase (KARS) (Homo sapiens, UniProt Q15046). In words: co-crystal structure at […] Å; MST Kd; also ATP consumption/AMP production by purified KARS. The arrangement: gene KARS1; KARS70-580, C-terminal 6xHis. Format: binding.
The target in assay [2] is T1, Lysyl-tRNA synthetase (KARS). In words: biochemical. The arrangement: gene KARS1.

T1 sequence (Q15046 70-580): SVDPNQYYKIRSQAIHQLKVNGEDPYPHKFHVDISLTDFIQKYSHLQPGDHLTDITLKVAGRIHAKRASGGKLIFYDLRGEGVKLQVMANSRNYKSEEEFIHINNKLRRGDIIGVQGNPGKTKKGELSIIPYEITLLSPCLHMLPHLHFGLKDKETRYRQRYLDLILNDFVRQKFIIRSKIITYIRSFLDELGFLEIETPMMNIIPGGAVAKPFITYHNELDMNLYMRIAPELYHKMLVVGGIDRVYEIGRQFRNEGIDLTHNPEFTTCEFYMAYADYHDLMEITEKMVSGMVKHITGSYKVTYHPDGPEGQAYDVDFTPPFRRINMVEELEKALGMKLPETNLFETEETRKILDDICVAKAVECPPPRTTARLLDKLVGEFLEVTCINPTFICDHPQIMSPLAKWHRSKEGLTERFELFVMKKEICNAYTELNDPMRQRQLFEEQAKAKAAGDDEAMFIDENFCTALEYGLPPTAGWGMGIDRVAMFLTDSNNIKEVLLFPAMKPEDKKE

As a reminder, the Kd is a measure of binding affinity in units of concentration. The compound `CC(=O)NCCCC[C@H](N)C(=O)O` [AcK, N6-acetyl-L-lysine] yielded a Kd in assay [1] of 407 ± 291 µM. With `NCCCC[C@H](N)C(=O)O` [L-lysine], binding in assay [2] was put at a Kd of 118 ± 55.5 µM.

(Values after paper PMC11789599, “Co‐Translational Deposition of N ^6‐Acetyl‐L‐Lysine in Nascent Proteins Contributes to the Acetylome in Mammalian Cells” (Advanced Science, 2024).)
